The test system of assay [1] is HUVE cells. Briefly: HUVE cell proliferation. Format: cell-based, human. As to conditions: growth factor alone: HGF 25 ng/ml, VEGF 10 ng/ml, bFGF 5 ng/ml. The procedure: HUVE or HMVE cells were seeded per triplicate in type I collagen-coated 48-well plates (Biocoat) (3000 cells/well) in […] of complete EGM-Bullet Kit medium (BioWhittaker, Walkersville, Md.), allowed to attach for 4 hr and incubated overnight with or without the indicated concentrations of peptide 2. The cultures were rinsed twice in serum-free medium and incubated with EBM medium (BioWhittaker) supplemented with 50 μg/ml heparin, 50 μg/ml ascorbic acid and 10% FCS. After either 4 days (HUVE) or 5 days (HMVE), cells were harvested with trypsin/EDTA and counted with an hemocytometer. The mean number of cells per ml was calculated from 3 independent measures for each of triplicate wells per experimental condition and compared to controls using the Student's unpaired t-test. Results set forth in FIG. 12 are described as the ratio of growth factor-treated to control proliferating cells designated on the y-axis as “Proliferation (Fold Increase)”.

The test system of the next assay is MDCK cells. Briefly: Extracellular matrix invasion assay, MDCK cells in collagen gels. The format is cell-based, canine. As to conditions: peptide 100 nM. The procedure: MDCK cell invasion into three-dimensional collagen gels was analyzed as previously described. Briefly, type I collagen (1.5 mg/ml; Cohesion Technologies) was mixed with 10×MEM and sodium bicarbonate (11.76 mg/ml) at a ratio of 8:1:1 (vol:vol:vol) on ice, and 0.4 ml aliquots were dispensed into 16-mm tissue culture wells (Nunc), and allowed to gel at 37° C. for 20 min. Cells were seeded onto gels (1×10^4 cells/well) in 0.4 ml of growth medium containing HGF and/or peptides 1 or 4 as indicated. After 5 days, cells were fixed in situ in 2.5% glutaraldehyde in 0.1 M sodium cacodylate buffer (pH 7.4), and cells that had invaded the gel below the surface monolayer in ten randomly selected fields (1×1.4 mm) were counted microscopically using a 20× phase contrast objective. Depth of cellular invasion into the collagen gel was quantitated in the same ten fields per treatment group using a calibrated fine focusing micrometer. Values were compared using the Student's unpaired t-test and a significant value was taken as P<0.001. Results in Table 1 are shown as the mean number of invading cells/field or mean invasion depth/cell in microns+standard error of the mean.
MDCK cells were left untreated (Control), treated with HGF (10 ng/ml), or HGF+peptide 2 or 4 (100 nM), and invasion into collagen matrices was quantitated microscopically as described above. Values are the mean of at least 10 randomly selected fields±standard error of the mean. Epithelial Tube Formation Assay

In assay [2] the test system is HMEC-1 cells. Briefly: HMEC-1 cell migration, modified Boyden chamber. The format is cell-based, human. The procedure: (§1) The migration assay of HUVE and HMEC-1 cells in modified Boyden chambers was adapted from previously described procedures (Murohara et al., Thromb. Vasc. Biol., 19: 1156-61 (1999), Malinda et al., FASEB J., 13: 53-62 (1999)). In brief, Biocoat Cell Environment control inserts (8 micron pore size; Becton Dickinson) were coated with 0.1% gelatin (Sigma) for at least 1 hour at 37° C. and air dried. Lower chambers contained 0.7 ml RPMI+0.1% BSA, to which 20 ng/ml HGF and/or 300 nM Grb2 inhibitors were added. Cells were pre-treated with the indicated concentrations of Grb2 inhibitors for 18-24 hours, trypsinized, washed twice in RPMI+0.1% BSA, added to upper chambers (5×10^4 cells/well) with or without inhibitors in a final volume of 0.5 ml, and incubated for 4 h at 37° C. Cells on the upper surface of each filter were removed with a cotton swab, while cells that had traversed to the bottom surface of the filter were fixed and stained using Diff-Quik (Dade Diagnostics) and counted using a 10× objective. Mean values from 4 randomly selected fields (1×1.4 mm) were calculated for each of triplicate wells per experimental condition. Shown in FIG. 6 is the ratio of growth factor-treated to control migrating cells designated on the y-axis as “Migration (Fold Increase)” or as the mean number of cells per optical field in FIGS. 8-11.

The subject of assay [3] is HUVE cells. Briefly: HUVE cell migration, modified Boyden chamber. Format: cell-based, human. The procedure: as §1
Assay [4] has as its system HMEC-1 cells. Briefly: Endothelial cell tubulogenesis assay on collagen (HMEC-1 collagen invasion). The format is cell-based, human. The procedure: HMEC-1 cell tubulogenesis assay on collagen gels was adapted from a previously described procedure (Montesano et al., Cell, 42: 469-77 (1985), Pepper et al., Exp. Cell Res., 204: 356-63 (1993)). Cells were seeded onto collagen gels cast in 16-mm wells (2.5×10^4 cells/well) and grown to confluence in reduced growth medium (5% FCS and 150 μg/ml ECGS). At confluence cells were pre-treated with or without Grb2 inhibitors for 24 hours, after which time medium was replaced by fresh medium supplemented with or without the indicated concentration of inhibitors and/or 20 ng/ml HGF. Medium and compounds were changed every day. After 24 hours, the cultures were fixed in situ, and 5 randomly selected optical fields per experimental condition in each of three separate experiments were digitally recorded under phase contrast microscopy using a 20× phase contrast objective, by focusing 20 μm beneath the surface of the gel. Invasion was quantitated using IPLab software (Scanalytics, Fairfax, Va.) by measuring the total length of all cellular structures that had penetrated beneath the surface monolayer either as apparently single cells or in the form of cell cords. Values were compared using Student's unpaired t-test and a significant value was taken at P<0.001. Results set forth in FIG. 7 are the mean total length (in μm) per field.

In another assay the test system is TAC-2 cells. Briefly: Epithelial tube formation assay, TAC-2 cells in collagen gels. Format: cell-based. Particulars: for HGF-induced elongation of epithelial tubes (cord length): HGF 20 ng/ml, 3 days; for concentration at which a sub-maximal inhibitory effect is already observed: HGF-induced tube elongation. The protocol: TAC-2 cells were suspended in three-dimensional collagen gels at 1×10^4 cells/ml in collagen and incubated in complete medium containing HGF and/or Grb2 inhibitors as indicated. After 3 days, the cultures were fixed with 2.5% glutaraldehyde in 0.1 M cacodylate buffer, and at least 3 randomly selected fields per experimental condition in each of 3 separate experiments were digitally recorded with brightfield microscopy. The total length of the cords in each individual colony present in each optical field was measured with IPLab. Cord length was considered as “0” in: a) colonies with a spheroidal shape, and b) slightly elongated structures in which the length to diameter ratio was less than 2. The mean values for each experimental condition were compared to controls using the Student's unpaired t-test. Results in FIG. 5 are described as mean total cord length (in μm) per field.

For a further assay, the system named is HUVECs. Briefly: HUVE cell tubulogenesis assay on Matrigel. Format: cell-based, human. The procedure:
The HUVE tube formation assay was performed as previously described (Grant et al., J. Cell. Physiol., 153: 614-625 (1992)). Briefly, 96-well plates were coated with 90 μl of Matrigel (10 mg/ml) (Collaborative Research) (Baatout, supra) and incubated at 37° C. for 30 min to promote gelling. 10,000 HUVECs were resuspended in reduced growth medium (serum concentration 10% and 5 U/ml heparin) and added to each well with the indicated reagents in a final volume of 100 μl. After 18 h, the plates were fixed with Diff-Quik, and at least 4 randomly selected fields per experimental conditions were digitally recorded under bright field illumination using a 10× objective. The mean additive length of the cords present in each optical field was measured using IPLab and compared to controls using the Student's unpaired t-test.

A further assay relates to NIH 3T3 fibroblasts. Briefly: NIH 3T3 fibroblast migration, modified Boyden chamber. Format: cell-based. Particulars: PDGF-BB 50 ng/ml alone. The procedure:
as §1
PDGF is implicated in different biological processes such vascular remodeling, wound healing and cancer (for reviews, see Bornfeldt et al., Ann N Y Acad. Sci., 766:416-30, 1995; Gendron, Surv. Ophthalmol., 44:184-5, 1999). Addition of 50 ng/ml PDGF-BB to NIH 3T3 fibroblasts incubated in a modified Boyden chamber results in a dramatic, 20-fold increase in cell migration. […] This observation opens a potential therapeutical use of the Grb2 inhibitor compounds in the treatment of diseases such as cancer, wound healing disorders, vascular complications of diabetes mellitus, vascular nephropathies, and diseases with occurrence of fibrosis.

[5] abbreviates: peptide 300 nM, no growth factor.

With VEGF, the “increase in the mean number of HUVE cells per ml (proliferation)” value (“increase … per ml (proliferation)” for short) with HUVE cells [1] is reported as 2 fold.
As to “HGF: hepatocyte growth factor, recombinant human”, in the assay on MDCK cells (HGF 10 ng/ml, 5 days), the “Mean Invading Cells/Field” value was 29.7 ± 2.6 and the “Mean Invasion Depth/Cell” value is given as 35.6 ± 2.7 μm. Besides, the “increase on cell motility induced by growth factor” value in the assay on HMEC-1 cells [2] (HGF 20 ng/ml alone) worked out at 5.5 fold. The “increase on cell motility induced by growth factor” value in the assay on HUVE cells [3] (HGF 20 ng/ml alone) stood at 3.5 fold. For the same molecule, the “increase in collagen invasion” value with HMEC-1 cells [4] (HGF 20 ng/ml alone) is given as 6 fold. In addition, the “increase … per ml (proliferation)” value in the assay on HUVE cells [1] worked out at 2.3 fold.
On to “bFGF: human recombinant basic fibroblast growth factor”, for which, in the assay with HUVE cells [1], the “increase … per ml (proliferation)” value was 4.1 fold.
For `NC(=O)C[C@H](NC(=O)C1(NC(=O)[C@H](Cc2ccc(CP(=O)(O)O)cc2)NC(=O)C(=O)O)CCCCC1)C(=O)NCCCc1cccc2ccccc12` [peptide 1, oxalyl-Pmp-Ac6c-Asn-NH-(3-naphthalen-1-yl-propyl)], the “HGF-induced elongation of epithelial tubes (cord length)” value in the assay with TAC-2 cells was “significantly (p<0.0001) abrogate”. Moreover, the “concentration at which a sub-maximal inhibitory effect is already observed” value in the assay on TAC-2 cells came to 30 nM. The “elongation and branching of duct-like structures” value in the assay with TAC-2 cells (co-addition with HGF 20 ng/ml) was “abrogated the elongation and branching of duct-like structures”. The “HGF-induced increase on cell motility” value in the assay on HMEC-1 cells [2] (peptide 300 nM, HGF 20 ng/ml) is “practically reverted to basal levels”; in the assay on HUVE cells [3] (peptide 300 nM, HGF 20 ng/ml) it was “practically reverted to basal levels”. Besides, the “basal levels of endothelial cell motility” value with HMEC-1 cells [2] (setting [5]) and with HUVE cells [3] (setting [5]) was “did not significantly alter” in each case. Besides, in the assay with HUVE cells [3] (peptide 300 nM), the “bFGF-induced HUVEC migration” value was “complete blockade”. Moreover, the “collagen invasion induced by HGF” value in the assay with HMEC-1 cells [4] (peptide 30-300 nM, HGF 20 ng/ml) is on record as “suppressed”. Further, the “mean length of the cords per optical field” value with HUVECs (HGF/NK1 300 ng/ml, peptide 1 μM, 18 h) worked out at 2502.8±108 μm. The “extent of cord formation” value with HUVECs (peptide 1 μM + HGF/NK1) is “markedly reduced the extent of cord formation”. Further, the “decrease in mean cord length vs HGF/NK1 alone” value with HUVECs (peptide 1 μM + HGF/NK1 300 ng/ml) is 30%.
As for `CC(=O)N[C@@H](Cc1ccc(C(C(=O)O)C(=O)O)cc1)C(=O)NC1(C(=O)N[C@@H](CC(N)=O)C(=O)NCCCc2cccc3ccccc23)CCCCC1` [peptide 3, (N-acetyl-4-malonyl)-Phe-Ac6c-Asn-NH-(3-naphthalen-1-yl-propyl)], in the assay on MDCK cells (HGF-stimulated), the “reduction of the mean depth of invasion per cell” value is recorded as “at least 50%” and the “reduction of the number of invading cells” value is reported as “at least 50%”. In the assay with TAC-2 cells, the “HGF-induced elongation of epithelial tubes (cord length)” value is “significantly (p<0.0001) abrogate” and the “concentration at which a sub-maximal inhibitory effect is already observed” value worked out at 30 nM.
With `CCCCCCCCCCCCCC(=O)O[C@@H]1[C@@H](C)[C@@]2(O)[C@@H](C=C(CO)C[C@]3(O)C(=O)C(C)=C[C@@H]23)[C@@H]2C(C)(C)[C@]12OC(C)=O` [PMA, phorbol myristate acetate, reference compound], the “increase of cell migration” value in the assay with HUVE cells [3] (PMA 40 ng/ml alone) is given as 300%.

B1: PDGF-BB: platelet-derived growth factor used to stimulate NIH 3T3 migration (protein, UniProt P01127 82-190, looked up)
Platelet-derived growth …: SLGSLTIAEPAMIAECKTRTEVFEISRRLIDRTNANFLVWPPCVEVQRCSGCCNNRNVQCRPTQVQLRPVQVRKIEIVRKKPIFKKATVTLEDHLACKCETVAAARPVT
modifications: homodimer
notes: platelet-derived growth factor used to stimulate NIH 3T3 migration
Regarding B1, in the assay on NIH 3T3 fibroblasts, the “increase in cell migration” value worked out at 20 fold.
